The structures appear in SMILES notation. Converted amounts (≈) assume the structure as drawn. Some results are limits rather than exact numbers.

For data set [1], the system named is Mycobacterium tuberculosis. Nature of the data set: Antimycobacterial activity against Mycobacterium tuberculosis H37Rv incubated for 5 days by Bactiter-Glo assay. The note with it: 120 h. Type of data set: functional.
Data set [2] is described as follows: Cytotoxicity against human HepG2 cells assessed as reduction in cell viability after 40 hrs by Celltiter-Glo assay. On the technique in general: ATP-based viability assays read luminescence as a measure of living cells.
The test system of data set [3] is Mycobacterium tuberculosis. Nature of the data set: Antimycobacterial activity against Mycobacterium tuberculosis H37Rv incubated for 5 days in presence of 25% human serum by Bactiter-Glo assay. Type of data set: functional. The note with it: 120 h.
Data set [4] has as its system Mycobacterium tuberculosis. The data set can be described thus: Antimycobacterial activity against GFP-tagged Mycobacterium tuberculosis H37Rv infected in mouse RAW264.7 cells incubated for 4 days by Mask blue/Hoechst/FITC staining based fluorescence microscopic analysis. It is filed as functional. To be noted: 96 h.
Data set [5] concerns Mycobacterium tuberculosis. The data set can be described thus: Antimycobacterial activity against Mycobacterium tuberculosis H37Rv incubated for 5 days in presence of 25% mouse serum by Bactiter-Glo assay. Type of data set: functional. The note with it: 120 h.
The nature of data set [6]: Protein binding in human plasma at 1 to 10 uM after 4 hrs by LC-MS/MS analysis. Type of data set: ADME, cell-free. The note with it: read-out: PPB (converted).
A short description of data set [7]: Protein binding in Swiss mouse plasma at 1 to 10 uM after 4 hrs by LC-MS/MS analysis. Type of data set: ADME, cell-free. The note with it: read-out: PPB (converted).
A short description of data set [8]: AUC in Balb/c mouse plasma infected with Mycobacterium tuberculosis H37Rv at 100 mg/kg, po administered through gavage as VitE/PEG200/HPC formulation. Type of data set: ADME, organism-based.
The nature of data set [9]: Half life in Balb/c mouse infected with Mycobacterium tuberculosis H37Rv at 100 mg/kg, po administered through gavage as VitE/PEG200/HPC formulation. Type of data set: ADME, organism-based. The note with it: in vivo.
Data set [10] in a line: Ratio of drug level in Mycobacterium tuberculosis H37Rv infected Balb/c mouse lung to plasma at 100 mg/kg, po administered through gavage as VitE/PEG200/HPC formulation. The note with it: other tissue.
The test system of data set [11] is Mycobacterium tuberculosis. The data set can be described thus: Antimycobacterial activity against Mycobacterium tuberculosis H37Rv infected in Balb/c mouse assessed as bacterial burden in lungs at 10 mg/kg, po administered daily through gavage starting on day 2 post infection for 4 days per week for 2 weeks as VitE/PEG200/HPC formulation measured on day 12 post infection (reference value: 7.8 log10CFU). It is filed as functional, Lung.

Data set [12] has as its system Mycobacterium tuberculosis. The data set can be described thus: Antimycobacterial activity against Mycobacterium tuberculosis H37Rv infected in Balb/c mouse assessed as bacterial burden in lungs at 30 mg/kg, po administered daily through gavage starting on day 2 post infection for 4 days per week for 2 weeks as VitE/PEG200/HPC formulation measured on day 12 post infection (reference value: 7.8 log10CFU). Type of data set: functional, Lung.

Data set [13] has as its system Mycobacterium tuberculosis. The data set can be described thus: Antimycobacterial activity against Mycobacterium tuberculosis H37Rv infected in Balb/c mouse assessed as bacterial burden in lungs at 100 mg/kg, po administered daily through gavage starting on day 2 post infection for 4 days per week for 2 weeks as VitE/PEG200/HPC formulation measured on day 12 post infection (reference value: 7.8 log10CFU). It is filed as functional, Lung.

Another data set concerns Mus musculus. The data set can be described thus: Toxicity in Balb/c mouse infected with Mycobacterium tuberculosis H37Rv at 300 mg/kg, po administered through gavage as single dose. It is filed as organism-based. The note with it: in vivo.
The nature of data set [14]: Lipophilicity, log P of compound. The note with it: octanol/water.
The nature of data set [15]: Aqueous equilibrium solubility of compound in pH 1 solution at 20 degC. To be noted: aqueous pH 1 solution.
A short description of data set [16]: Aqueous equilibrium solubility of compound in pH 7.4 solution at 20 degC. To be noted: aqueous pH 7.4 solution.
The subject of data set [17] is Mycobacterium tuberculosis. The data set can be described thus: Ratio of MIC80 for Mycobacterium tuberculosis H37Rv in presence of 25% human serum to MIC80 for Mycobacterium tuberculosis H37Rv. Type of data set: functional.
A short description of data set [18]: Permeability in human Caco2 cells. To be noted: caco-2. For orientation: Caco-2 monolayers are a common model of the intestinal barrier.
In data set [19] the target is T1, Cytochrome P450 3A4 (Homo sapiens, UniProt P08684). Nature of the data set: Inhibition of CYP3A4 in human liver microsomes assessed as 6-beta-hydroxytestosterone metabolite formation using testosterone as substrate incubated for 30 mins by HPLC-MS method.
T1 sequence (P08684 whole entry): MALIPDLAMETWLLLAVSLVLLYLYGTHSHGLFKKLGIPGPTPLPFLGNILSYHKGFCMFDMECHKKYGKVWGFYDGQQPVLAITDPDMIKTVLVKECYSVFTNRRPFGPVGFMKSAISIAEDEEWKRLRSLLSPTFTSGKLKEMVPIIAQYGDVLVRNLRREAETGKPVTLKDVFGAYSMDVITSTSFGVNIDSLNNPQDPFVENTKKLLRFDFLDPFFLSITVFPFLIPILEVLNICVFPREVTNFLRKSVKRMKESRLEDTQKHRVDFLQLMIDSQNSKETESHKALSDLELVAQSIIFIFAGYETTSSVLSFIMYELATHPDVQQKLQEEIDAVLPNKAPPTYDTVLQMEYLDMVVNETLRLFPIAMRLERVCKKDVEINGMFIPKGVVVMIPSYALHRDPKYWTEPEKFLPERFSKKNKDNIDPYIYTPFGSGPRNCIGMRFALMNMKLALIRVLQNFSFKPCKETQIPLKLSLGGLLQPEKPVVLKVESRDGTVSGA
The target of data set [20] is T1, Cytochrome P450 3A4. The data set can be described thus: Inhibition of CYP3A4 in human liver microsomes assessed as 1'-hydroxymidazolam metabolite formation using midazolam as substrate incubated for 10 mins by HPLC-MS method. (Microsomes from liver hold many membrane-bound enzymes, among them those of drug oxidation.)
Data set [21] in a line: AUC in Balb/c mouse plasma infected with Mycobacterium tuberculosis H37Rv at 100 mg/kg, po administered through gavage as 90%/10% PEG200/vitamin -E TPGS formulation. It is filed as ADME, organism-based.
Data set [22] in a line: Solubility in 90%/10% PEG200/vitamin -E TPGS solution. It is filed as physicochemical.
Data set [23] in a line: Oral bioavailability in Swiss mouse at 100 mg/kg administered as single dose through gavage as 90%/10% PEG200/vitamin -E TPGS formulation after 24 hrs. To be noted: in vivo. It is filed as ADME, organism-based.
Data set [24] is described as follows: Ratio of drug level in Mycobacterium tuberculosis H37Rv infected Balb/c mouse lung to plasma at 100 mg/kg, po administered through gavage as 90%/10% PEG200/vitamin -E TPGS formulation. The note with it: lung and plasma. It is filed as ADME, organism-based.
A short description of data set [25]: Half life in Balb/c mouse infected with Mycobacterium tuberculosis H37Rv at 100 mg/kg, po administered through gavage as 90%/10% PEG200/vitamin -E TPGS formulation. Type of data set: ADME, organism-based. The note with it: in vivo.
The nature of data set [26]: Time at which plasma concentration stays above invitro MIC80 in presence of mouse serum in Balb/c mouse infected with Mycobacterium tuberculosis H37Rv at 100 mg/kg, po administered through gavage as 90%/10% PEG200/vitamin -E TPGS formulation. To be noted: in vivo. Type of data set: ADME, organism-based.
Data set [27] in a line: Time at which lung concentration stays above invitro MIC80 in presence of mouse serum in Balb/c mouse infected with Mycobacterium tuberculosis H37Rv at 100 mg/kg, po administered through gavage as 90%/10% PEG200/vitamin -E TPGS formulation. To be noted: in vivo. Type of data set: ADME, organism-based.
The subject of data set [28] is Mycobacterium tuberculosis. Nature of the data set: Antimycobacterial activity against Mycobacterium tuberculosis H37Rv infected in Balb/c mouse assessed as bacterial burden in lungs at 12.5 mg/kg, po administered daily through gavage starting on day 2 post infection for 4 days per week for 2 weeks as Vitamin-E/PEG200 formulation each 4 days dosing followed by 2 days compound washout measured on day 12 post infection (reference value: 8 log10CFU). It is filed as functional, Lung.

In data set [29] the test system is Mycobacterium tuberculosis. Nature of the data set: Antimycobacterial activity against Mycobacterium tuberculosis H37Rv infected in Balb/c mouse assessed as bacterial burden in lungs at 25 mg/kg, po administered daily through gavage starting on day 2 post infection for 4 days per week for 2 weeks as Vitamin-E/PEG200 formulation each 4 days dosing followed by 2 days compound washout measured on day 12 post infection (reference value: 8 log10CFU). It is filed as functional, Lung.

Data set [30] has as its system Mycobacterium tuberculosis. Nature of the data set: Antimycobacterial activity against Mycobacterium tuberculosis H37Rv infected in Balb/c mouse assessed as bacterial burden in lungs at 50 mg/kg, po administered daily through gavage starting on day 2 post infection for 4 days per week for 2 weeks as Vitamin-E/PEG200 formulation each 4 days dosing followed by 2 days compound washout measured on day 12 post infection (reference value: 8 log10CFU). It is filed as functional, Lung.

Data set [31] relates to Mycobacterium tuberculosis. The data set can be described thus: Antimycobacterial activity against Mycobacterium tuberculosis H37Rv infected in Balb/c mouse assessed as bacterial burden in lungs at 100 mg/kg, po administered daily through gavage starting on day 2 post infection for 4 days per week for 2 weeks as Vitamin-E/PEG200 formulation each 4 days dosing followed by 2 days compound washout measured on day 12 post infection (reference value: 8 log10CFU). Type of data set: functional, Lung.

The test system of data set [32] is Mycobacterium tuberculosis. The data set can be described thus: Antimycobacterial activity against Mycobacterium tuberculosis H37Rv infected in Balb/c mouse assessed as bacterial burden in lungs at 200 mg/kg, po administered daily through gavage starting on day 2 post infection for 4 days per week for 2 weeks as Vitamin-E/PEG200 formulation each 4 days dosing followed by 2 days compound washout measured on day 12 post infection (reference value: 8 log10CFU). It is filed as functional, Lung.

The subject of data set [33] is Mycobacterium tuberculosis. The data set can be described thus: Antimycobacterial activity against Mycobacterium tuberculosis H37Rv infected in po dosed Balb/c mouse assessed as reduction in bacterial burden in lungs administered daily through gavage starting on day 2 post infection for 8 consecutive days. The note with it: Lung, 48 h, read-out: MED. It is filed as functional.

Data set [34] concerns Mycobacterium tuberculosis. Nature of the data set: Antimycobacterial activity against Mycobacterium tuberculosis H37Rv in 1000 bacteria inoculated agar plate. Type of data set: functional.
In data set [35] the test system is Mycobacterium tuberculosis. Nature of the data set: Antimycobacterial activity against Mycobacterium tuberculosis H37Rv in 100000 bacteria inoculated agar plate. It is filed as functional.
In data set [36] the test system is Mycobacterium tuberculosis. Nature of the data set: Antimycobacterial activity against Mycobacterium tuberculosis H37Rv infected in Balb/c mouse assessed as bacterial burden in lungs at 10 to 300 mg/kg administered daily through gavage starting on day 2 post infection for 8 consecutive days. It is filed as functional, Lung.
In data set [37] the test system is Mycobacterium tuberculosis. The data set can be described thus: Antimycobacterial activity against Mycobacterium tuberculosis H37Rv infected in Balb/c mouse assessed as bacterial burden in lungs at 10 to 300 mg/kg administered daily through gavage for 4 days separated by 2 days drug wash out followed by second 4 days drug treatment. It is filed as functional, Lung.

As a reminder, the MIC80 is the lowest concentration that inhibits either 80% of growth or 80% of the strains tested, depending on the study. Usually IC50 stands for the concentration at which inhibition is half-maximal. The term AUC denotes the area under the concentration-time curve, a measure of exposure. Read a low AUC as low exposure. By half-life is commonly meant the time in which the quantity being followed falls by half. Lower therefore signals rapid decline. As a reminder, the Kp is the ratio of the level in a tissue or fluid to that in plasma or blood. For the compound `Cn1c(NCCc2ccc(-c3ccc(F)cc3)cc2)nc2cc(N)ccc2c1=O`, the MIC80 in data set [1] stood at 0.01 µM (≈ 0.00388 µg/mL); in data set [3], 0.01 µM; in [4], 0.06 µM (≈ 0.0233 µg/mL); in data set [5] it was 0.007 µM. Also, in data set [2] (hepg2), the IC50 at 40 h is above 30 µM. Also, the fraction unbound at 4 h in [6] and in data set [7] was 0.002 in each case. The compound further returned an AUC in [8] of 29000 ng·h/mL. Besides, the half-life in data set [9] is 6 h. The Kp in [10] turned out to be 4.5. Further, the Activity in [11] was 7.4; in [12] it was 7.1; in [13], 7; in the data set on Mus musculus it was “Toxic”.
One may read the logP as a log measure of how a compound divides between an organic and an aqueous phase. High values mean higher lipophilicity, low ones lower lipophilicity. A word on the thermodynamic solubility: it is solubility found after equilibrating the solid with the medium. The term solubility denotes the concentration that dissolves in the medium under given conditions. Higher therefore signals much dissolved substance. Broadly, the bioavailability is the share of a dose that reaches the circulation, judged against a reference dose that is usually intravenous. Read a high bioavailability as much systemic uptake. Broadly, the MIC is the lowest concentration that inhibits growth of the organism. Lower therefore signals a more susceptible organism. Regarding `Cn1c(NCCc2ccc(-c3ccc(F)cc3)cc2)nc2cc(Cl)ccc2c1=O`, the MIC80 came out at 0.003 µM (≈ 0.00122 µg/mL) in [1], 0.025 µM in data set [3], 0.06 µM (≈ 0.0245 µg/mL) in data set [4] and 0.034 µM in data set [5]. Further, in [2] (HepG2 cells), the IC50 at 40 h was 22 µM. The same compound came in with a logP in [14] of 5.28. Further, the solubility (thermodynamic) in data set [15] and in data set [16] was below 0.001 mg/mL in each case. Besides, the Ratio in data set [17] is recorded as 8. Moreover, the fraction unbound at 4 h in data set [6] and in [7] was 0.001 each time. The permeability result in [18] was “Permeable”. In addition, the concentration for half-maximal inhibition (IC50) on Cytochrome P450 3A4 [19] is 18 µM; on Cytochrome P450 3A4 [20], above 30 µM. This compound registered an exposure (AUC) in data set [21] of 76000 ng·h/mL. The same compound gave a solubility in data set [22] of 20 mg/mL (≈ 49000 µM). The compound also came in with a bioavailability in data set [23] of 73%. Moreover, the concentration ratio (Kp) in data set [24] was determined as 14. In [25], this compound had a half-life of 8 h. In addition, the Time in data set [26] and in [27] was above 24 h in each case. In addition, the Activity was 7.7 log10CFU in data set [28]; 7.6 log10CFU in data set [29]; 7.4 log10CFU in data set [30]; 7.6 log10CFU in data set [31]; 7.6 log10CFU in [32]; 0.78 log10CFU in [36]. Moreover, in data set [37], the Activity amounted to 1.5 log10CFU. The minimal effective dose in [33] was 300 mg/kg. For the same compound, the MIC is 0.016 µg/mL (≈ 0.0392 µM) in data set [34] and 2 µg/mL (≈ 4.9 µM) in data set [35].

These data come from ChEMBL document CHEMBL3853353, “Identification and optimization of a new series of anti-tubercular quinazolinones” (Bioorg Med Chem Lett, 2016).
